In ChEMBL document CHEMBL3784916, “Synthesis and anticancer activity of novel fluorinated asiatic acid derivatives” (Eur J Med Chem, 2016):

Key:
MCF7 = experiment: Cytotoxicity against human MCF7 cells after 72 hrs by MTT assay; format: functional, cell-based; conditions: for IC50: MCF7, 72 h
PC-3 = experiment: (§1) Cytotoxicity against human PC3 cells after 72 hrs by MTT assay; format: functional, cell-based
Jurkat = experiment: Cytotoxicity against human Jurkat cells after 72 hrs by XTT assay; format: functional, cell-based
[1] = (§2) Cytotoxicity against human MIAPaCa2 cells after 72 hrs by MTT assay; format: functional, cell-based; conditions: MIA PaCa-2, 72 h
MIA PaCa-2 = experiment: as §2; format: functional, cell-based
HT-29 = experiment: Cytotoxicity against human HT-29 cells after 72 hrs by MTT assay; format: functional, cell-based; conditions: HT-29, 72 h
HeLa = experiment: Cytotoxicity against human HeLa cells after 72 hrs by MTT assay; format: functional, cell-based
A-375 = experiment: Cytotoxicity against human A375 cells after 72 hrs by MTT assay; format: functional, cell-based; conditions: for IC50: A-375, 72 h
BJ = experiment: Cytotoxicity against human BJ cells after 72 hrs by MTT assay; format: cell-based; conditions: for Activity: human, bj; for IC50: Homo sapiens, BJ
[2] = as §1; format: functional, cell-based; conditions: PC-3, 72 h

## CCCC(=O)OC[C@]1(C)C=C(C=O)[C@@]2(C)[C@H]1CC[C@]1(C)[C@@H]2C[C@@H](F)[C@]23OC(=O)[C@@]4(CC[C@@H](C)[C@H](C)[C@H]42)CC[C@]31C
MCF7
  Activity: Dose-dependent effect
  IC50: 1.4 µM
PC-3
  Activity: Dose-dependent effect
Jurkat
  Activity: Dose-dependent effect
[1]
  IC50: 1.47 µM
MIA PaCa-2
  Activity: Dose-dependent effect
HT-29
  IC50: 1.29 µM
HeLa
  IC50: 0.95 µM
A-375
  Activity: Dose-dependent effect
  IC50: 1.02 µM

## CC(=O)OC[C@@]1(C)[C@@H]2CC[C@]3(C)[C@H](C[C@@H](F)[C@]45[C@@H]6[C@@H](C)[C@H](C)CC[C@@]6(CC[C@]43C)C(=O)N5C)[C@@]2(C)C[C@@H](OC(C)=O)[C@@H]1OC(C)=O
MCF7
  Activity: Dose-dependent effect
BJ
  Activity: Dose-dependent effect
PC-3
  Activity: Dose-dependent effect
Jurkat
  Activity: Dose-dependent effect
MIA PaCa-2
  Activity: Dose-dependent effect
HT-29
  IC50: 8.5 µM
HeLa
  IC50: 2.95 µM
A-375
  Activity: Dose-dependent effect

## C[C@H]1[C@H](C)CC[C@@]23CC[C@]4(C)[C@](OC2=O)([C@H](F)C[C@@H]2[C@@]5(C)C[C@@H](O)OC[C@](C)(C=O)[C@@H]5CC[C@]24C)[C@H]13
MCF7
  Activity: Dose-dependent effect
BJ
  Activity: Dose-dependent effect
PC-3
  Activity: Dose-dependent effect
Jurkat
  Activity: Dose-dependent effect
MIA PaCa-2
  Activity: Dose-dependent effect
HT-29
  IC50: 11.2 µM
HeLa
  IC50: 7.4 µM
A-375
  Activity: Dose-dependent effect

## CC(=O)OC[C@@]1(C)[C@@H]2CC[C@]3(C)[C@H](C[C@@H](F)[C@]45OC(=O)[C@@]6(CC[C@@H](C)[C@H](C)[C@H]64)CC[C@]53C)[C@@]2(C)C[C@@H](OC(C)=O)[C@@H]1OC(C)=O
MCF7
  Activity: Dose-dependent effect
BJ
  Activity: Dose-dependent effect
PC-3
  Activity: Dose-dependent effect
Jurkat
  Activity: Dose-dependent effect
MIA PaCa-2
  Activity: Dose-dependent effect
HT-29
  IC50: 6.38 µM
HeLa
  IC50: 4.43 µM
A-375
  Activity: Dose-dependent effect

## C[C@H]1[C@H](C)CC[C@@]23CC[C@]4(C)[C@](OC2=O)([C@H](F)C[C@@H]2[C@@]5(C)C(C=O)=C[C@@](C)(CO)[C@@H]5CC[C@]24C)[C@H]13
MCF7
  Activity: Dose-dependent effect
BJ
  Activity: Dose-dependent effect
PC-3
  Activity: Dose-dependent effect
Jurkat
  Activity: Dose-dependent effect
MIA PaCa-2
  Activity: Dose-dependent effect
HT-29
  IC50: 1.28 µM
HeLa
  IC50: 1.08 µM
A-375
  Activity: Dose-dependent effect

## COC(=O)[C@H](C)N1C(=O)[C@]23CC[C@@H](C)[C@H](C)[C@H]2[C@]12[C@H](F)C[C@@H]1[C@@]4(C)C[C@@H](OC(C)=O)[C@H](OC(C)=O)[C@@](C)(COC(C)=O)[C@@H]4CC[C@@]1(C)[C@]2(C)CC3
MCF7
  Activity: Dose-dependent effect
BJ
  Activity: Dose-dependent effect
PC-3
  Activity: Dose-dependent effect
Jurkat
  Activity: Dose-dependent effect
MIA PaCa-2
  Activity: Dose-dependent effect
HT-29
  IC50: 6.37 µM
HeLa
  IC50: 3.97 µM
A-375
  Activity: Dose-dependent effect

## C[C@H]1[C@H](C)CC[C@@]23CC[C@]4(C)[C@](OC2=O)([C@H](F)C[C@@H]2[C@@]5(C)C(C=O)=C[C@@](C)(COC(=O)c6ccccc6)[C@@H]5CC[C@]24C)[C@H]13
MCF7
  Activity: Dose-dependent effect
  IC50: 0.88 µM
BJ
  IC50: 2.24 µM
PC-3
  Activity: Dose-dependent effect
Jurkat
  Activity: Dose-dependent effect
[1]
  IC50: 1.33 µM
MIA PaCa-2
  Activity: Dose-dependent effect
HT-29
  IC50: 1.05 µM
HeLa
  IC50: 0.8 µM
A-375
  Activity: Dose-dependent effect
  IC50: 0.96 µM

## CC(=O)OC[C@]1(C)C=C(C=O)[C@@]2(C)[C@H]1CC[C@]1(C)[C@@H]2C[C@@H](F)[C@]23OC(=O)[C@@]4(CC[C@@H](C)[C@H](C)[C@H]42)CC[C@]31C
MCF7
  Activity: Dose-dependent effect
BJ
  Activity: Dose-dependent effect
PC-3
  Activity: Dose-dependent effect
Jurkat
  Activity: Dose-dependent effect
MIA PaCa-2
  Activity: Dose-dependent effect
HT-29
  IC50: 2.02 µM
HeLa
  IC50: 1.4 µM
A-375
  Activity: Dose-dependent effect

## C[C@H]1[C@H](C)CC[C@@]23CC[C@]4(C)[C@](OC2=O)([C@H](F)C[C@@H]2[C@@]5(C)C(C=O)=C[C@@](C)(COC(=O)n6ccnc6)[C@@H]5CC[C@]24C)[C@H]13
MCF7
  Activity: Dose-dependent effect
BJ
  Activity: Dose-dependent effect
PC-3
  Activity: Dose-dependent effect
Jurkat
  Activity: Dose-dependent effect
MIA PaCa-2
  Activity: Dose-dependent effect
HT-29
  IC50: 2.37 µM
HeLa
  IC50: 1.62 µM
A-375
  Activity: Dose-dependent effect

## CCCC(=O)OC[C@@]1(C)[C@@H]2CC[C@]3(C)[C@H](C[C@@H](F)[C@]45OC(=O)[C@@]6(CC[C@@H](C)[C@H](C)[C@H]64)CC[C@]53C)[C@@]2(C)C[C@@H](OC(=O)CCC)[C@@H]1OC(=O)CCC
MCF7
  Activity: Dose-dependent effect
BJ
  Activity: Dose-dependent effect
PC-3
  Activity: Dose-dependent effect
Jurkat
  Activity: Dose-dependent effect
MIA PaCa-2
  Activity: Dose-dependent effect
HT-29
  IC50: 7.4 µM
HeLa
  IC50: 5.05 µM
A-375
  Activity: Dose-dependent effect

## C[C@H]1[C@H](C)CC[C@@]23CC[C@]4(C)[C@](OC2=O)([C@H](F)C[C@@H]2[C@@]5(C)CC(=O)[C@H](O)[C@@](C)(CO)[C@@H]5CC[C@]24C)[C@H]13
MCF7
  Activity: Dose-dependent effect
BJ
  Activity: Dose-dependent effect
PC-3
  Activity: Dose-dependent effect
Jurkat
  Activity: Dose-dependent effect
MIA PaCa-2
  Activity: Dose-dependent effect
HT-29
  IC50: 23.5 µM
HeLa
  IC50: 24.5 µM
A-375
  Activity: Dose-dependent effect

## C[C@H]1[C@H](C)CC[C@@]23CC[C@]4(C)[C@](OC2=O)([C@H](F)C[C@@H]2[C@@]5(C)C[C@@H](O)[C@H](O)[C@@](C)(CO)[C@@H]5CC[C@]24C)[C@H]13
MCF7
  Activity: Dose-dependent effect
BJ
  Activity: Dose-dependent effect
PC-3
  Activity: Dose-dependent effect
Jurkat
  Activity: Dose-dependent effect
MIA PaCa-2
  Activity: Dose-dependent effect
HT-29
  IC50: 51.2 µM
HeLa
  IC50: 60.2 µM
A-375
  Activity: Dose-dependent effect

## COC(=O)CN1C(=O)[C@]23CC[C@@H](C)[C@H](C)[C@H]2[C@]12[C@H](F)C[C@@H]1[C@@]4(C)C[C@@H](OC(C)=O)[C@H](OC(C)=O)[C@@](C)(COC(C)=O)[C@@H]4CC[C@@]1(C)[C@]2(C)CC3
MCF7
  Activity: Dose-dependent effect
BJ
  Activity: Dose-dependent effect
PC-3
  Activity: Dose-dependent effect
Jurkat
  Activity: Dose-dependent effect
MIA PaCa-2
  Activity: Dose-dependent effect
HT-29
  IC50: 9.23 µM
HeLa
  IC50: 2.72 µM
A-375
  Activity: Dose-dependent effect

## C[C@H]1[C@H](C)CC[C@]2(C(=O)O)CC[C@]3(C)C(=CC[C@@H]4[C@@]5(C)C[C@@H](O)[C@H](O)[C@@](C)(CO)[C@@H]5CC[C@]43C)[C@H]12 [ASIATIC ACID]
MCF7
  Activity: Dose-dependent effect
  IC50: 68.5 µM
BJ
  IC50: 88.7 µM
[2]
  IC50: 67.2 µM
PC-3
  Activity: Dose-dependent effect
Jurkat
  Activity: Dose-dependent effect
  IC50: 37.2 µM
[1]
  IC50: 50.7 µM
MIA PaCa-2
  Activity: Dose-dependent effect
HT-29
  IC50: 64.3 µM
HeLa
  IC50: 52.5 µM
A-375
  Activity: Dose-dependent effect
  IC50: 50.3 µM

## CC(=O)OC[C@@]1(C)[C@@H]2CC[C@]3(C)[C@H](C[C@@H](F)[C@]45NC(=O)[C@@]6(CC[C@@H](C)[C@H](C)[C@H]64)CC[C@]53C)[C@@]2(C)C[C@@H](OC(C)=O)[C@@H]1OC(C)=O
MCF7
  Activity: Dose-dependent effect
BJ
  Activity: Dose-dependent effect
PC-3
  Activity: Dose-dependent effect
Jurkat
  Activity: Dose-dependent effect
MIA PaCa-2
  Activity: Dose-dependent effect
HT-29
  IC50: 7.5 µM
HeLa
  IC50: 2.37 µM
A-375
  Activity: Dose-dependent effect

## Cc1nccn1C(=O)OC[C@]1(C)C=C(C=O)[C@@]2(C)[C@H]1CC[C@]1(C)[C@@H]2C[C@@H](F)[C@]23OC(=O)[C@@]4(CC[C@@H](C)[C@H](C)[C@H]42)CC[C@]31C
MCF7
  Activity: Dose-dependent effect
BJ
  Activity: Dose-dependent effect
PC-3
  Activity: Dose-dependent effect
Jurkat
  Activity: Dose-dependent effect
MIA PaCa-2
  Activity: Dose-dependent effect
HT-29
  IC50: 2.8 µM
HeLa
  IC50: 1.63 µM
A-375
  Activity: Dose-dependent effect
